{
  "source": "patent US8791258B2",
  "about": "“Pro-fluorescent probes” (The Regents of the University of California, priority 2008, dated 2014)",
  "key": {"[1]": {"experiment": "Fluorescence response to various ROS (H2O2 selectivity)", "details": "20 mM HEPES, pH 7, 25° C.", "protocol": "(§1) FIG. 7 is the fluorescence response of 5 μM PF1 to various ROS (10 mM O2^−, 100 μM for all other ROS). .OH and .Ot-Bu were generated by reaction of Fe^2+ with H2O2 or tert-butyl hydroperoxide (TBHP), respectively. NO was delivered using S-nitrosocysteine (SNOC). Spectra were acquired in 20 mM HEPES, pH 7, and all data were obtained after incubation with the appropriate ROS at 25° C. for 1 h. Collected emission was integrated between 460 and 700 nm (λexc=450 nm).\nFIG. 8 is the fluorescence response of 5 μM PR1 to various ROS (10 mM O2^−, 100 μM for all other ROS). .OH and .O^tBu were generated by reaction of Fe^2+ with H2O2 or tert-butyl hydroperoxide (TBHP), respectively. NO was delivered using S-nitrosocysteine (SNOC). Spectra were acquired in 20 mM HEPES, pH 7, and all data were obtained after incubation with the appropriate ROS at 25° C. for 30 min. Collected emission was integrated between 570 and 800 nm (λexc=560 nm).\nas §1, with “FIG. 9” for “FIG. 7”, “of 10” for “of 5”, “μM PX1” for “μM PF1”, “between 370” for “between 460”, “and 600” for “and 700”, “nm (λexc=350” for “nm (λexc=450”\n(§2) Millipore water was used to prepare all aqueous solutions. All spectroscopic measurements were performed in 20 mM HEPES buffer, pH 7. Absorption spectra were recorded using a Varian Cary 50 spectrophotometer (Walnut Creek, Calif.). Fluorescence spectra were recorded using a Photon Technology International Quanta Master 4 L-format scanning spectrofluorometer (Lawrenceville, N.J.) equipped with an LPS-220B 75-W xenon lamp and power supply, A-1010B lamp housing with integrated igniter, switchable 814 photon-counting/analog photomultiplier detection unit, and MD5020 motor driver. Samples for absorption and fluorescence measurements were contained in 1-cm×1-cm quartz cuvettes (1.4- or 3.5-mL volume, Starna, Atascadero, Calif.).\nFIG. 7, FIG. 8 and FIG. 9 compare the relative reactivities of boronate-based PF1, PR1, and PX1, respectively, toward various ROS."}, "HEK cells": {"system": "HEK cells", "experiment": "Confocal and two-photon fluorescence imaging of H2O2 in live HEK cells", "protocol": "(a) Fluorescence image of HEK cells incubated with 5 μM PF1 for 5 min at 25° C. (b) Fluorescence image of PF1-stained HEK cells treated with 100 μM H2O2 for 11 min at 25° C. Excitation was provided at 488 nm, and emission was collected in a window from 505 to 580 nm. Scale bar=27 μm.\n(a) Fluorescence image of HEK cells incubated with 10 μM PR1 for 10 min at 25° C. (b) Fluorescence image of PR1-stained HEK cells treated with 100 μM H2O2 for 30 min at 25° C. Excitation was provided at 543 nm, and emission was collected in a window from 548 to 644 nm. Scale bar=18 μm.\n(a) Fluorescence image of HEK cells incubated with 10 μM PX1 for 2-3 min at 25° C. (b) Fluorescence image of PX1-stained HEK cells treated with 100 μM H2O2 for 30 min at 25° C. Two-photon excitation was provided at 704 nm, and emission was collected in a window from 420 to 500 nm. Scale bar=18 μm.\nHEK 293T cells were cultured in Dulbecco's Modified Eagle Medium (DMEM, Invitrogen, Carlsbad, Calif.) supplemented with 10% Fetal Bovine Serum (FBS, Invitrogen), glutamine (2 mM), and penicillin/streptomycin (50 μg/ml, Invitrogen). One day before imaging, cells were passed and plated on 18-mm glass coverslips coated with poly-L-lysine (50 μg/ml, Sigma, St. Louis, Mo.). Immediately before the experiments, cells were washed with PBS buffer, incubated with the probe in PBS, and imaged.\nConfocal fluorescence imaging was performed with a Zeiss LSM510 META laser scanning microscope containing an Axioplan 2 MOT upright microscope and a 40× water-immersion objective lens. Excitation of PF1-loaded cells at 488 nm was carried out with an argon ion laser, and emission was Collected in a window from 505 nm to 580 nm using a META detection system. Excitation of PR1-loaded cells at 543 nm was carried out with a HeNe laser, and emission was collected in a window from 548 nm to 644 nm using a META detector. PF1 or PR1 were incubated with live cell samples for 5 to 10 min. Addition of H2O2 (10 to 100 μM) to cell samples was performed directly on the microscope stage by bath application to the media.\nTwo-photon fluorescence imaging of PX1 was carried out using an inverted Zeiss LSM510 Axiovert 200M microscope with a NeoFLUAR 40×/1.3 NA oil-immersion objective lens. Samples were excited by 704-nm pulses from a mode-locked Ti:Sapphire laser (Tsunami, SpectraPhysics, 120-150 fs pulse width, 80 MHz repetition rate). The emission light was filtered with a 80-nm wide bandpass filter centered at 460 nm (460BP40, Chroma) and detected with the non-descanned detector (NDD) of the LSM510."}, "[2]": {"details": "cited from earlier work"}, "[3]": {"experiment": "Absorption and emission properties, fluorescence quantum yield", "format": "physicochemical", "details": "20 mM HEPES, pH 7; for fluorescence quantum yield Φ: by reference to fluorescein; for extinction coefficient ε at 510 nm: λabs 510 nm", "protocol": "as §2\nas §2, with “recorded on” for “recorded using”, “Creek, Calif.) and fluorescence” for “Creek, Calif.). Fluorescence”, “and emission” for “and fluorescence”, “cuvettes (1.5-mL” for “cuvettes (1.4- or 3.5-mL”, “Calif.). Fluorescence quantum yields were determined by reference to fluorescein in 0.1M NaOH (Φ=0.95).” for “Calif.).”"}, "HeLa cells": {"system": "HeLa cells", "format": "cell-based", "details": "5 μM probe; 50 nM MitoTracker Deep Red, 500 nM LysoTracker Red", "protocol": "100 μM H2O2 was then added to one of the petri dishes. At 20 minutes, 50 nM MitoTracker Deep Red, 500 nM Lysotracker Red, and 1 μM Hoechst 33342 were added to both dishes. After an additional 20 minutes (40 minute stimulation total), the two coverslips were put in a single, new petri dish filled with fresh DPBS and confocal images were taken (3.2 μsec pixel time, 100% laser power for 514 line, 4.1% laser power for the 633 line, 26% laser power for the 543 line, scanned using 12-bit multi-track scan mode using a constant receiver gain). Shown above are signals from MitoPY1 (a), MitoTracker Deep Red (b), LysoTracker Red (c), an overlay of MitoTracker Deep Red and MitoPY1 (d), Hoechst (e), and a brightfield image (f) of cells not treated with H2O2, as well as signals from MitoPY1 (g), MitoTracker Deep Red (h), LysoTracker Red (i), an overlay of MitoTracker Deep Red and MitoPY1 (j), Hoechst (k), and a brightfield image (l) of cells treated with H2O2. A 20 μm scale bar shown for all images.\nHeLa cells incubated with 5 μM MitoPY1 for 60 min at 37° C. and imaged with MitoPY1 (a), MitoTracker Red and Hoechst (overlay, b), and MitoPY1 with MitoTracker Red (overlay, c). HeLa cells incubated with 5 μM MitoPY1 for 60 min at 37° C. with 100 μM H2O2 added for the final 40 min and imaged with MitoPY1 (d), MitoTracker Red and Hoechst (overlay, e), MitoPY1 and MitoTracker Red (overlay, f), and brightfield (g) with 20 μm scale bar. HeLa cells incubated with 5 μM MitoPY1 for 60 min at 37° C. and imaged with MitoPY1 (h), MitoTracker Red and Hoechst (overlay, i), and MitoPY1 with MitoTracker Red (overlay, j). HeLa cells incubated for 24 h with 1 mM paraquat, then washed and incubated with 5 μM MitoPY1 for 60 min at 37° C. and imaged with MitoPY1 (k), MitoTracker Red and Hoechst (overlay, l), MitoPY1 and MitoTracker Red (overlay, m), and brightfield (n) with 20 μm scale bar.\nHEK293 cells were cultured in DMEM (Invitrogen) supplemented with 10% fetal bovine serum (FBS, Hyclone) and glutamine (2 mM). CHO.K1 cells were cultured in DMEM with F-12 supplements, glutamax (Invitrogen), and 5% FBS. Cos-7 cells were cultured in DMEM with high glucose, glutamax, 10% FBS, and non-essential amino acids (Invitrogen). HeLa cells were cultured in DMEM with high glucose, glutamax, and 10% FBS. Two days before imaging, cells were passaged and plated on 18-mm glass coverslips. For all experiments, solutions of dyes (from 5 mM stocks in DMSO) were made in DBPS with calcium chloride and magnesium chloride (Sigma). H2O2 was added by bath application to the medium from a 100 mM aqueous stock. For paraquat treatment, HeLa cells were cultured as described above. One day prior to imaging, 1 mM paraquat was added to cells from a 0.5 M stock solution in water. An equal amount of water was added to control cells at the same time. Cells were then incubated at 37° C., 5% CO2. After 24 hours, the media was exchanged for DPBS with 5 μM dye and incubated for 1 hour.\nConfocal fluorescence imaging studies were performed with a Zeiss LSM510 NLO Axiovert 200 laser scanning microscope and a 63× Achroplan IR water-immersion objective lens. Excitation of PY-loaded cells at 510 nm was carried out with an Ar laser and emission was collected using a META detector between 527-580 nm. MitoTracker Deep Red was excited with a 633-nm line and emission was collected between 666-698 nm. LysoTracker Red was excited with a 543-nm line and emission was collected between 580-644 nm. Excitation of Hoechst 33342 was carried out using a MaiTai two-photon laser at 780-nm pulses (mode-locked Ti:sapphire laser, Tsunami Spectra Physics) and emission was collected between 452-537 nm. Image analysis was performed in Adobe Photoshop.\nMitoPY1 was tested for its ability to both target the mitochondria and respond to H2O2 in living biological systems. […] Again, co-staining with MitoTracker confirms that the dye is retained in the mitochondria and detects localized rises in H2O2 concentrations."}},
  "data": [
    {"smiles": "CC1(C)OB(c2ccc3c(c2)Oc2cc(B4OC(C)(C)C(C)(C)O4)ccc2N3)OC1(C)C", "note": "[PR1, 3,7-Bis(pinacolatoboron)phenoxazine]", "values": [
      {"measurement": "higher response for H2O2 over .OH", "setting": "[1]; 100 μM ROS, .OH from Fe2+ with H2O2", "value": "> 200", "unit": "fold"},
      {"measurement": "higher response for H2O2 over .OtBu", "setting": "[1]; 100 μM ROS, .OtBu from Fe2+ with TBHP", "value": "> 200", "unit": "fold"},
      {"measurement": "higher response for H2O2 over NO", "setting": "[1]; 100 μM ROS, NO delivered using SNOC", "value": "> 200", "unit": "fold"},
      {"measurement": "higher response for H2O2 over O2−", "setting": "[1]; 10 mM O2−, 100 μM H2O2", "value": "> 1000", "unit": "fold"},
      {"measurement": "intracellular background fluorescence of probe-loaded cells before H2O2", "setting": "HEK cells; 5-10 μM probe, 2-10 min at 25° C.", "value": "virtually no background fluorescence"},
      {"measurement": "cell viability during imaging", "setting": "HEK cells; after probe incubation and H2O2 treatment, brightfield", "value": "cells are viable throughout the experiments"},
      {"measurement": "membrane permeability / cell entry", "setting": "HEK cells; live HEK cells", "value": "membrane-permeable"},
      {"measurement": "intracellular fluorescence after addition of H2O2", "setting": "HEK cells; probe-loaded cells, 10-100 μM H2O2", "value": "Striking increases in intracellular red fluorescence"}
    ]},
    {"smiles": "O=C(O)c1ccccc1C1c2cc(Cl)c(O)cc2Oc2cc(O)c(Cl)cc21", "note": "[DCFH, 2′,7′-dichlorodihydrofluorescein]", "values": [
      {"measurement": "fluorescence increase by reaction with .OH or peroxynitrite (ONOO−)", "setting": "[2]; .OH or ONOO−", "value": "ca. 7000 fold"},
      {"measurement": "fluorescence increase upon addition of H2O2, previously reported probes", "setting": "[2]; H2O2", "value": 190, "unit": "fold"},
      {"measurement": "fluorescence increase with NO", "setting": "[2]; NO", "value": 150, "unit": "fold"},
      {"measurement": "fluorescence increase with O2−", "setting": "[2]; O2−", "value": 67, "unit": "fold"},
      {"measurement": "fluorescence increase upon light-induced autoxidation", "setting": "[2]; light-induced autoxidation", "value": 2000, "unit": "fold"}
    ]},
    {"smiles": "O=C1OC2(c3ccc(O)cc3Oc3cc(N4CCN(CCCC[P+](c5ccccc5)(c5ccccc5)c5ccccc5)CC4)ccc32)c2ccccc21", "note": "(centres unmarked) [MitoPY1ox]", "values": [
      {"measurement": "fluorescence quantum yield Φ", "setting": "[3]", "value": 0.405},
      {"measurement": "extinction coefficient ε at 510 nm", "setting": "[3]", "value": "22,300 M^−1 cm^−1"},
      {"measurement": "subcellular localization (co-staining with MitoTracker Deep Red, LysoTracker Red)", "setting": "HeLa cells", "value": "only MitoPY1 targets the mitochondria"}
    ]},
    {"smiles": "CC(=O)N1CCN(c2ccc3c(c2)Oc2cc(B4OC(C)(C)C(C)(C)O4)ccc2C32OC(=O)c3ccccc32)CC1", "note": "(centres unmarked) [ContPY1]", "values": [
      {"measurement": "fluorescence quantum yield Φ", "setting": "[3]", "value": 0.018},
      {"measurement": "extinction coefficient ε at 515 nm of the corresponding rhodol formed with H2O2", "setting": "[3]; after reaction with H2O2, 515 nm", "value": "38,200 M^−1 cm^−1"},
      {"measurement": "fluorescence quantum yield Φ of the corresponding rhodol formed with H2O2", "setting": "[3]; after reaction with H2O2, λem 543 nm", "value": 0.388},
      {"measurement": "extinction coefficient ε at 404 nm", "setting": "[3]; λabs 404 nm", "value": "4,100 M^−1 cm^−1"},
      {"measurement": "extinction coefficient ε at 490 nm", "setting": "[3]; λabs 490 nm", "value": "15,600 M^−1 cm^−1"},
      {"measurement": "extinction coefficient ε at 510 nm", "setting": "[3]", "value": "16,130 M^−1 cm^−1"},
      {"measurement": "subcellular localization (co-staining with MitoTracker Deep Red, LysoTracker Red)", "setting": "HeLa cells", "value": "only MitoPY1 targets the mitochondria"}
    ]}
  ]
}
